This note sets out measurements from US20230255962A1, “COMBINATION OF A BTK INHIBITOR AND AN INHIBITOR OF CDK9 TO TREAT CANCER” (ASTRAZENECA AB, priority 2017, published 2023).

Assay [1] concerns OCILy10 tumor cells. Nature of the assay: Subcutaneous tumor model, tumor volume. It counts as in vivo, C.B.-17 SCID female mice. The settings on record: OCILy10, following 3 cycles of dosing; AZD4573 ip BID 2 on/5 off, ibrutinib 12 mg/kg po QD. The method, then:
AZD4573 was formulated in dimethylacetamide (DMA)/polyethylene glycol 400 (PEG 400)/1% w/v Tween 80 solution 2/30/68 and dosed at 5 mL/kg, intraperitoneally (ip), BID with a 2 hour split on days 1 and 2 followed by a 5 day dose holiday; i.e., a 2 on/5 off schedule. […]
5×10^6 OCILy10 tumor cells or 10×10^6 TMD8 tumor cells were injected subcutaneously in the right flank of C.B.-17 SCID female mice in a volume of 0.1 mL containing 50% matrigel. 10×10^6 Karpas-422 tumor cells were injected subcutaneously in the right flank of SCID beige female mice in a volume of 0.1 mL containing 50% matrigel. Tumor volumes (measured by caliper), animal body weight, and tumor condition were recorded twice weekly for the duration of the studies. The tumor volume was calculated using the formula: length (mm)×width (mm)^2×0.52. For efficacy studies, growth inhibition from the start of treatment was assessed by comparison of the differences in tumor volume between control and treated groups. […]
AZD4573 was formulated in dimethylacetamide (DMA)/polyethylene glycol 400 (PEG 400)/1% w/v Tween 80 solution 2/30/68 and dosed at 5 mL/kg, intraperitoneally (ip), bi-daily (BID) with a 2 hour split on days 1 and 2 with a 5 day dose holiday. […] Tumor volumes (measured by caliper), animal body weight, and tumor condition were recorded twice weekly for the duration of the studies. […]

In assay [2] the test system is TMD8. The assay can be described thus: Western blot time course, cleaved caspase-3 (induction of apoptosis). It is filed as cell-based. As to conditions: TMD8, 100 nM AZD4573 8-hour time course, alone or following 24-hour pre-treatment with 100 nM acalabrutinib. The method, then:
(§1) Two BTK inhibitor-sensitive ABC-DLBCL cell lines (OCILy10 and TMD8) and one insensitive GCB-DLBCL cell line (Karpas422) were treated for an 8-hour time course with either 100 nM AZD4573 alone or following a 24-hour pre-treatment with 100 nM acalabrutinib (since exposure to acalabrutinib for 24 hours was sufficient to induce maximal BH3-only protein levels). Cells were harvested for protein lysates at varying time points (0, 0.5, 1, 2, 4, and 8 hours) post-AZD4573 treatment, normalized for protein concentration using the BCA Protein Assay Kit, and run for western blots according to standard protocols. To ensure expected target engagement was achieved, the blots were probed for the proximal and distal biomarkers for CDK9 (pSer2-RNAPolII and Mcl-1, respectively) and the biomarker for activated BTK (pBTK). To gauge the time to induction of apoptosis, cleaved caspase-3 was also assessed. A loading control (vinculin) was also utilized for normalization.
(A western blot detects proteins with antibodies after separation by electrophoresis.)

Assay [3] relates to OCILy10. The assay is described as above. It counts as cell-based. The settings on record: OCILy10, 100 nM AZD4573 8-hour time course, alone or following 24-hour pre-treatment with 100 nM acalabrutinib. The method, then: as §1
The BTK inhibitor-sensitive ABC-DLBCL cell line OCILy10 was treated in vitro for an 8-hour time course with either 100 nM AZD4573 alone or following a 24-hour pre-treatment with 30 nM ibrutinib since, similar to acalabrutinib, exposure for 24 hours was sufficient to induce maximal BH3-only protein levels (data not shown). […] To gauge the time to induction of apoptosis, cleaved caspase-3 was also assessed. […]

The subject of assay [4] is OCILy10. Nature of the assay: TMRE/DAPI flow cytometry, percentage of apoptotic or dead cells. It is filed as cell-based. The method, then:
(§2) Two BTK inhibitor-sensitive ABC-DLBCL cell lines (OCILy10 and TMD8) and one insensitive GCB-DLBCL cell line (Karpas422) were treated with either vehicle (DMSO), 100 nM acalabrutinib, or 100 nM AZD4573 for varying lengths of time as either single agent or in combination. Since exposure of BTKi-sensitive cell lines to acalabrutinib for 24 hours was sufficient to induce maximal BH3-only protein levels relative to vehicle-treated cells (FIG. 1), 24-hour pre-treatment of acalabrutinib was chosen for one of the combination sequences. Therefore, cells were treated with: 32 hours of acalabrutinib alone; 8 hours of AZD4573 alone; 8 hours of AZD4573 and acalabrutinib dosed concurrently; or 32 hours of acalabrutinib with AZD4573 added sequentially for the final 8 of those 32 hours (in other words, 24 hours of acalabrutinib pre-treatment).
(§3) The percentage of apoptotic or dead cells was determined by staining the samples with both tetramethylrhodamine, ethyl ester (TMRE) and 4′,6-diamidino-2-phenylindole (DAPI) and then subjecting them to flow cytometry using a BD LSR Fortessa. TMRE is a positively charged dye that accumulates in active mitochondria, and cells undergoing apoptosis experience mitochondrial outter membrane permeabilization (MOMP), which then fails to retain TMRE. […] Following appropriate treatments, cells were stained directly with 200 nM TMRE, incubated for 30 minutes at 37° C., resuspended in flow buffer containing DAPI, and subjected to flow cytometry. Flowjo was used to establish appropriate gates according to viability (DAPI) and MOMP (TMRE), and viable cells were defined as those with low DAPI and high TMRE staining.
On the technique in general: In flow cytometry, cells or beads pass a laser one at a time.

The subject of assay [5] is OCILy10. The assay can be described thus: CellTiter-Glo viability readout, 72 hours, GI50. It is filed as cell-based. As to conditions: OCILy10, 10-point dose-response. The method, then: (§4) Two ABC-DLBCL (OCILy10 and TMD8) cell lines and one GCB-DLBCL (Karpas422) cell line were treated with either vehicle (DMSO) or a 10-point, ½ log serially dilution of acalabrutinib for 72 hours with a CellTiter-Glo viability readout. The concentration at which 50% growth is inhibited (GI50) was calculated using GraphPad Prism or GeneData.
A general note: Cellular ATP, detected with luciferase, serves as a proxy for viable cell number.

Assay [6] has as its system TMD8. Nature of the assay: CellTiter-Glo viability readout, 72 hours, GI50. The settings on record: TMD8, 10-point dose-response. It counts as cell-based. As to the method: as §4
Assay [7] deals with OCILy10. The assay can be described thus: Western blot of Bcl2 family / BH3-only protein levels. It counts as cell-based. As to the method: (§5) OCILy10, TMD8, and Karpas422 were treated with either vehicle or 100 nM acalabrutinib for 2 to 72 hours. Protein lysates were harvested at multiple time points in that interval, protein concentration was determined using the BCA Protein Assay Kit, and Western blots were performed according to standard protocol to assess the effects on Bcl2 family protein levels. Each sample was normalized to vinculin as a loading control, and then protein levels of acalabrutinib-treated samples were calculated relative to those of vehicle-treated samples.
The BTK inhibitor-sensitive ABC-DLBCL cell line OCILy10 was treated in vitro for an 8-hour time course with either 100 nM AZD4573 alone or following a 24-hour pre-treatment with 30 nM ibrutinib since, similar to acalabrutinib, exposure for 24 hours was sufficient to induce maximal BH3-only protein levels (data not shown). Cells were harvested for protein lysates at varying time points (0, 0.5, 1, 2, 4, and 8 hours) post-AZD4573 treatment, normalized for protein concentration using the BCA Protein Assay Kit, and run for Western blots according to standard protocols. To ensure expected target engagement was achieved, the blots were probed for the proximal and distal biomarkers for CDK9 (pSer2-RNAPolII and Mcl-1, respectively) and the biomarker for activated BTK (pBTK). […] To gauge the time to induction of apoptosis, cleaved caspase-3 was also assessed. […]

For assay [8], the system named is Karpas422. The assay is described as above. It counts as cell-based. The settings on record: Karpas422, 100 nM acalabrutinib. As to the method: as §5
In assay [9] the test system is TMD8. The description is as above. It counts as cell-based. The method, then: as §5
The test system of assay [10] is Karpas422. The assay can be described thus: TMRE/DAPI flow cytometry, percentage of apoptotic or dead cells. It counts as cell-based. As to conditions: Karpas-422, 100 nM acalabrutinib alone or in combination with 100 nM AZD4573. The method, then: as §2, §3

With `CC(=O)N[C@@H]1CCC[C@H](C(=O)Nc2cc(-c3cnn4c3CC(C)(C)C4)c(Cl)cn2)C1` [AZD4573, (1S,3R)-3-acetamido-N-(5-chloro-4-(5,5-dimethyl-5,6-dihydro-4H-pyrrolo[1,2-b]pyrazol-3-yl)pyridin-2-yl)cyclohexanecarboxamide], the “complete response, % of treated animals” value in [1] was 100%. Moreover, the “induction of cleaved caspase” value in assay [2] and in assay [3] was “mild caspase activation by 8 hours” in each case. Moreover, the cell death in assay [4] (OCI-LY-10, 8 hours of 100 nM AZD4573 alone) is on record as ~40%.
`CC#CC(=O)N1CCC[C@H]1c1nc(-c2ccc(C(=O)Nc3ccccn3)cc2)c2c(N)nccn12` [acalabrutinib, (S)-4-(8-amino-3-(1-but-2-ynoylpyrrolidin-2-yl)imidazo[1,5-a]pyrazin-1-yl)-N-(pyridin-2-yl)benzamide]: the “sensitivity to BTK inhibition (dose-response)” value in assay [5] and in assay [6] was “sensitive” each time. The “time to maximal BH3-only protein levels following dosing” value in assay [7] (BTK inhibitor-sensitive cells (OCILy10), 100 nM) was ≤ 24 h; in assay [9] (BTK inhibitor-sensitive cells (TMD8), 100 nM), ≤ 24 h. The “levels of pro-apoptotic BH3-only proteins Bim and Bmf” value in assay [7] (OCILy10, 100 nM acalabrutinib, 24 hours, relative to the insensitive cell line) is on record as “increased”; in assay [9] (TMD8, 100 nM acalabrutinib, 24 hours, relative to the insensitive cell line), “increased”. Also, the BH3-only protein levels entry in assay [8] is recorded as “did not increase”. In addition, the cell death in [4] (OCI-LY-10, 32 hours of 100 nM acalabrutinib alone) was ~20%. In assay [10], the “effect on apoptotic/dead cells” value is “minimal effect”.
